Data set [1] has as its system RAW264.7. Put plainly: Cytotoxicity against mouse RAW264.7 cells at 50 uM by MTT assay. It counts as cell-based. Particulars: raw264.7, 50 µM. A general note: Formazan colour is commonly taken as a measure of viable cells.
Data set [2] relates to RAW264.7. Put plainly: Inhibition of RANKL-induced osteoclastogenesis in mouse RAW264.7 cells assessed as reduction in number of TRAP-positive multinuclear cells measured after 4 days by TRAP staining based assay. It is filed as functional, cell-based.
Data set [3] deals with RAW264.7. Put plainly: Inhibition of RANKL-induced osteoclastogenesis in mouse RAW264.7 cells assessed as reduction in number of TRAP-positive multinuclear cells at 50 uM measured after 4 days by TRAP staining based assay. Particulars: for inhibition: time 4.0 day. It is filed as functional.
For data set [4], the system named is RAW264.7. Put plainly: Cytotoxicity against mouse RAW264.7 cells at 25 uM by MTT assay. It counts as cell-based. Particulars: raw264.7, 25 µM.
Data set [5] relates to RAW264.7. Description: Inhibition of RANKL-induced osteoclastogenesis in mouse RAW264.7 cells assessed as reduction in NFATc1 mRNA expression measured after 24 hrs by RT-PCR analysis. Conditions: dose 30-50 µM. It counts as functional, cell-based.

Active and inactive are the calls of the source. The calls are words filed in the database; no cut-off is given here.

The term IC50 denotes the concentration at which inhibition is half-maximal. Turning to `CCCC(=O)n1ccc2c(Br)c3c(c(Br)c21)OCO3`, the Activity result in the data set with RAW264.7 [1] is reported as “Non-Toxic”. In the data set with RAW264.7 [2] (Mus musculus, RAW264.7, 96 h), the IC50 turned out to be 7.9 µM.

One may read the inhibition as the change of the read-out against control, counted positive when it falls. Turning to `c1cc2cc3c(cc2[nH]1)OCO3`, in the data set with RAW264.7 [3], the inhibition entry was “inactive”. Also, the Activity result with RAW264.7 [1] was “Non-Toxic”.

On to `CCCCCCCC(=O)n1ccc2c(Br)c3c(c(Br)c21)OCO3`, for which the Activity entry in the data set on RAW264.7 [1] is reported as “Non-Toxic”. Also, the IC50 with RAW264.7 [2] (Mus musculus, RAW264.7, 96 h) was found to be 11.1 µM.

Take `Brc1c2c(c(Br)c3c1OCO3)NCC2`: the Activity entry with RAW264.7 [1] is listed as “Non-Toxic”. Besides, the IC50 in the data set on RAW264.7 [2] (Mus musculus, RAW264.7, 96 h) stood at 25.6 µM.

For the molecule `O=C(c1ccccc1)n1ccc2c(Br)c3c(c(Br)c21)OCO3`, in the data set with RAW264.7 [3], the inhibition result is “inactive”. Also, in the data set with RAW264.7 [1], the Activity result is on record as “Non-Toxic”.

With `COc1c(OC)c(Br)c2[nH]ccc2c1Br`, in the data set with RAW264.7 [1], the Activity entry is recorded as “Non-Toxic”. In addition, the IC50 in the data set with RAW264.7 [2] (Mus musculus, RAW264.7, 96 h) turned out to be 6.3 µM.

As for `Cc1c[nH]c2c(Br)c3c(c(Br)c12)OCO3`, the Activity result in the data set with RAW264.7 [1] was “Non-Toxic”. Also, the IC50 in the data set on RAW264.7 [2] (Mus musculus, RAW264.7, 96 h) is 8.1 µM.

As for `NCCc1c[nH]c2c(Br)c3c(c(Br)c12)OCO3`, the IC50 in the data set on RAW264.7 [2] (Mus musculus, RAW264.7, 96 h) was 5.9 µM. Moreover, in the data set on RAW264.7 [4], the Activity result is “Toxic”.

Regarding `CC(=O)n1ccc2c(Br)c3c(c(Br)c21)OCO3`, the Activity result in the data set with RAW264.7 [1] is “Non-Toxic”. Besides, in the data set with RAW264.7 [2] (Mus musculus, RAW264.7, 96 h), the IC50 came out at 11.7 µM.

With `OCc1c[nH]c2c(Br)c3c(c(Br)c12)OCO3`, the Activity entry in the data set with RAW264.7 [1] is reported as “Non-Toxic”. The IC50 in the data set with RAW264.7 [2] (Mus musculus, RAW264.7, 96 h) was 10 µM.

For the molecule `Brc1c2c(c(Br)c3[nH]ccc13)OCO2`, in the data set on RAW264.7 [1], the Activity result is “Non-Toxic”. Moreover, the IC50 was found to be 10.5 µM with RAW264.7 [2] (Mus musculus, RAW264.7, 96 h) and 9.4 µM with RAW264.7 [2] (raw264.7). The inhibition result in the data set on RAW264.7 [2] (time 4.0 day) and in the data set on RAW264.7 [5] was “Dose-Dependent Effect” each time.

For `Clc1c2c(c(Cl)c3[nH]ccc13)OCO2`, the Activity entry in the data set on RAW264.7 [1] is listed as “Non-Toxic”. Also, in the data set with RAW264.7 [2] (Mus musculus, RAW264.7, 96 h), the IC50 came out at 40 µM.

In the case of `CCCCCCCCCCCCCC(=O)n1ccc2c(Br)c3c(c(Br)c21)OCO3`, the inhibition result in the data set with RAW264.7 [3] is “inactive”. Moreover, in the data set with RAW264.7 [1], the Activity result is reported as “Non-Toxic”.

As for `Brc1c2c(cc3cc[nH]c13)OCO2`, the Activity result with RAW264.7 [1] is given as “Non-Toxic”. Moreover, the IC50 in the data set with RAW264.7 [2] (Mus musculus, RAW264.7, 96 h) was found to be 35.4 µM.

Take `O=Cc1c[nH]c2c(Br)c3c(c(Br)c12)OCO3`: the Activity entry with RAW264.7 [1] is “Non-Toxic”. In the data set on RAW264.7 [2] (Mus musculus, RAW264.7, 96 h), the IC50 stood at 13.9 µM.

In the case of `Brc1[nH]c2cc3c(cc2c1Br)OCO3`, the inhibition at 50 µM in the data set with RAW264.7 [3] (RAW264.7, 96 h, time 4 day) was 40%. Besides, in the data set on RAW264.7 [1], the Activity result was “Non-Toxic”.

On to `Brc1c2c(cc3[nH]ccc13)OCO2`, for which the Activity entry in the data set with RAW264.7 [1] is “Non-Toxic”. For the same molecule, the IC50 in the data set with RAW264.7 [2] (Mus musculus, RAW264.7, 96 h) worked out at 16.8 µM.

For the origin of these results see ChEMBL document CHEMBL4840346, “Amakusamine from a Psammocinia sp. Sponge: Isolation, Synthesis, and SAR Study on the Inhibition of RANKL-Induced Formation of Multinuclear Osteoclasts” (J Nat Prod, 2021).
